Measurements published in the supplement of paper PMC10307832.

How the values were obtained:
Experiment in all cases: relative viability (nuclei count vs DMSO), 5 days (fraction); higher = more cells survive
Motesanib + Linsitinib = compound: CC1(C)CNc2cc(NC(=O)c3cccnc3NCc3ccncc3)ccc21 [Motesanib] + C[C@]1(O)C[C@@H](c2nc(-c3ccc4ccc(-c5ccccc5)nc4c3)c3c(N)nccn32)C1 [Linsitinib] (partner 1 µM)
Outline: (§1)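 The day after seeding in 1536-well plates, lung cancer cell lines were treated by pin tool with a single drug, or with a fixed anchor-drug dose together with five library-drug doses (not always all listed) in √10 steps. After 5 days, a combined fix-and-stain solution (final 0.05% Triton X-100, 1% formaldehyde, 1 ug/ml Hoechst) was added. Nuclei counted on 4× images gave relative viability as treated counts over vehicle counts, reported as the median of duplicate plates.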

Motesanib + Foretinib = compound: CC1(C)CNc2cc(NC(=O)c3cccnc3NCc3ccncc3)ccc21 [Motesanib] + COc1cc2c(Oc3ccc(NC(=O)C4(C(=O)Nc5ccc(F)cc5)CC4)cc3F)ccnc2cc1OCCCN1CCOCC1 [Foretinib] (partner 0.25 µM)
Outline: as §1

[1] = compound: C[C@@]1(C(=O)Nc2ccc(F)nc2)CCCN1c1nc(Nc2cc(C3CC3)n[nH]2)c2cccn2n1 + CS(=O)(=O)N1CCN(Cc2cc3nc(-c4cccc5[nH]ncc45)nc(N4CCOCC4)c3s2)CC1 [Pictilisib] (partner 1 µM)
Outline: as §1

Motesanib + Crizotinib = compound: CC1(C)CNc2cc(NC(=O)c3cccnc3NCc3ccncc3)ccc21 [Motesanib] + C[C@@H](Oc1cc(-c2cnn(C3CCNCC3)c2)cnc1N)c1c(Cl)ccc(F)c1Cl [Crizotinib] (partner 1 µM)
Outline: as §1

Row | Cell Line | relative viability (Motesanib + Linsitinib; first compound 0.01 µM) | relative viability (Motesanib + Linsitinib; first compound 0.03162 µM) | relative viability (Motesanib + Linsitinib; first compound 0.1 µM) | relative viability (Motesanib + Linsitinib; first compound 0.3162 µM) | relative viability (Motesanib + Linsitinib; first compound 1 µM) | relative viability (Motesanib + Foretinib; first compound 0.01 µM) | relative viability (Motesanib + Foretinib; first compound 0.03162 µM) | relative viability (Motesanib + Foretinib; first compound 0.1 µM) | relative viability (Motesanib + Foretinib; first compound 0.3162 µM) | relative viability (Motesanib + Foretinib; first compound 1 µM) | relative viability ([1]; first compound 0.04 µM) | relative viability ([1]; first compound 0.1265 µM) | relative viability ([1]; first compound 0.4 µM) | relative viability ([1]; first compound 1.265 µM) | relative viability (Motesanib + Crizotinib; first compound 0.01 µM) | relative viability (Motesanib + Crizotinib; first compound 0.03162 µM) | relative viability (Motesanib + Crizotinib; first compound 0.1 µM) | relative viability (Motesanib + Crizotinib; first compound 0.3162 µM) | relative viability (Motesanib + Crizotinib; first compound 1 µM)
1 | BEN | 0.932 | 0.842 | 1.08 | 0.886 | 1.05 | 0.627 | 0.55 | 0.739 | 0.572 | 0.992 | 0.614 | 0.573 | 0.606 | 0.614 | 0.792 | 0.85 | 0.803 | 0.928 | 0.978
2 | EMC-BAC-2 | 0.828 | 0.805 | 0.827 | 0.817 | 0.86 | 1.01 | 1.06 | 1.1 | 1.05 | 1.03 | 0.514 | 0.498 | 0.358 | 0.495 | 0.761 | 0.656 | 0.765 | 0.739 | 0.674
3 | LU99A | 0.496 | 0.565 | 0.537 | 0.511 | 0.594 | 0.795 | 0.813 | 0.734 | 0.898 | 0.89 | 0.233 | 0.217 | 0.225 | 0.163 | 0.518 | 0.477 | 0.493 | 0.549 | 0.574
4 | ABC-1 | 1.01 | 0.891 | 0.752 | 0.587 | 0.774 | 1.1 | 1.06 | 1.04 | 1.05 | 1.2 | 0.598 | 0.6 | 0.467 | 0.394 | 0.996 | 1.03 | 1.26 | 1.14 | 1.32
5 | NCI-H2170 |  |  |  |  |  | 1.01 | 1.03 | 0.955 | 0.952 | 0.982 | 0.243 | 0.212 | 0.188 | 0.243 | 1.16 | 1.19 | 1.15 | 1.13 | 1.18
6 | NCI-H1299 | 0.989 | 0.966 | 1.02 | 0.977 | 1.07 | 1.06 | 1.11 | 1.11 | 1.16 | 1.12 | 0.752 | 0.844 | 0.669 | 0.286 | 0.938 | 0.978 | 0.951 | 0.949 | 0.936
7 | EBC-1 | 0.829 | 0.941 | 0.978 | 0.959 | 0.937 | 0.1 | 0.0945 | 0.109 | 0.111 | 0.132 | 0.32 | 0.231 | 0.241 | 0.162 | 0.178 | 0.19 | 0.205 | 0.193 | 0.181
8 | NCI-H2347 | 0.985 | 1.01 | 1.06 | 1 | 1 | 0.85 | 0.429 | 1.14 | 0.614 | 1.86 | 0.595 | 0.6 | 0.516 | 0.776 | 0.783 | 0.691 | 0.715 | 0.745 | 0.631
9 | NCI-H1993 | 0.675 | 0.759 | 0.727 | 0.719 | 0.762 | 0.861 | 0.829 | 0.812 | 0.777 | 0.881 | 0.906 |  | 0.803 | 0.812 | 0.964 | 0.848 | 0.842 | 0.824 | 0.865
